For one test, the system named is BJA-B K20 cells. Nature of the test: Feeding of free sialic acids to BJA-B K20 cells, PToV probes, flow cytometry. Type of test: cell-based, human. The settings on record: 1 mM, three days; PToV with active esterase. In general terms: Flow cytometry measures light scatter and fluorescence of single cells or particles in a stream.
In test [1] the target is bovine coronavirus hemagglutinin-esterase (BCoV-Mebus-Fc, esterase inactivated) (Bovine coronavirus, UniProt P15776, S40A). Kind of test: Sialoglycan microarray binding of BCoV-Mebus-Fc (esterase inactive). The settings on record: without esterase treatment (FIG. 3A).

Take `CC(=O)N[C@H]1[C@H]([C@H](O)[C@H](O)COC(C)=O)OC(O)(C(=O)O)C[C@@H]1O` (stereo partly shown) [Neu5,9Ac2, 9-O-acetyl-N-acetylneuraminic acid]: the “resistance of cell surface sialic acid to virus-hemagglutinin-esterase activity” value in the test on BJA-B K20 cells is given as “only Neu5Ac9NAc-fed ones were resistant”.

For the compound `CC(=O)N[C@H]1[C@H]([C@H](O)[C@H](O)COC(C)=O)O[C@@](O[C@H]2[C@@H](O)[C@@H](CO)O[C@@H](O[C@H]3[C@H](O)[C@@H](O)[C@H](OCCCN)O[C@@H]3CO)[C@@H]2O)(C(=O)O)C[C@@H]1O` [Neu5,9Ac2α3Galβ4GlcβProNH2], the “binding of BCoV on glycan microarray” value in test [1] is on record as “prefer binding”.

Regarding `CC(=O)NC[C@@H](O)[C@@H](O)[C@@H]1OC(O)(C(=O)O)C[C@H](O)[C@H]1NC(C)=O` (stereo partly drawn) [Neu5Ac9NAc, 5,9-Diacetamido-3,5,9-Trideoxy-D-glycero-D-galacto-2-nonulopyranosylonic Acid], the “resistance of cell surface sialic acid to virus-hemagglutinin-esterase activity” value in the test with BJA-B K20 cells is given as “resistant to virus-hemagglutinin-esterase activity”. On to `CC(=O)NC[C@@H](O)[C@@H](O)[C@@H]1O[C@@](O[C@H]2[C@@H](O)[C@@H](CO)O[C@@H](O[C@H]3[C@H](O)[C@@H](O)[C@H](OCCCN)O[C@@H]3CO)[C@@H]2O)(C(=O)O)C[C@H](O)[C@H]1NC(C)=O` [Neu5Ac9NAcα3Galβ4GlcβProNH2, 3-Aminopropyl O-(5,9-Diacetamido-3,5,9-trideoxy-D-glycero-α-D-galacto-2-nonulopyranosylonic acid)-(2→3)-O-β-D-galactopyranosyl-(1→4)-β-D-glucopyranoside], for which, in test [1], the “binding of BCoV on glycan microarray” value is listed as “prefer binding”.

(Values after US12162901B2, “N-acetylated sialic acids and related sialosides” (priority 2016, dated 2024).)
